Reference: ChEMBL document CHEMBL1201862, “PubChem BioAssay data set” (2004)
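Compound exposure: 48 hours, 5 concentrations, 96-well plates. The concentration for 50% growth inhibition is given as GI50.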 Calls of active or inactive are those of the source. Rule as the data show it: active = GI50 up to about 1.1 µM and inactive = higher.

Legend:
Assay in all cases: NCI tumour cell line growth inhibition, 48 h
BT-549 = system: BT-549
NCI/ADR-RES = system: NCI/ADR-RES
DU-145 = system: DU-145
MCF7 = system: MCF7
ACHN = system: ACHN
SN12C = system: SN12C
HOP-62 = system: HOP-62
HCT-116 = system: HCT-116
EKVX = system: EKVX
PC-3 = system: PC-3
SR = system: SR
A498 = system: A498
OVCAR-4 = system: OVCAR-4
RXF 393 = system: RXF 393
SW-620 = system: SW-620
MDA-N = system: MDA-N
OVCAR-8 = system: OVCAR-8
K562 = system: K562
OVCAR-5 = system: OVCAR-5
SF-539 = system: SF-539

Measured: GI50

CCCC(=O)OCOC(=O)N(C)/N=N/c1ccc(C(=O)OCC)cc1
inactive: BT-549 26.8 µM | NCI/ADR-RES 28.9 µM | DU-145 22.2 µM | MCF7 17.8 µM | ACHN 17.5 µM | SN12C 27.2 µM | HOP-62 29 µM | HCT-116 21.1 µM | EKVX 37.9 µM | PC-3 25.1 µM | SR 23.7 µM | A498 29.2 µM | OVCAR-4 39.4 µM | RXF 393 16.3 µM | SW-620 19.8 µM | MDA-N 28.6 µM | OVCAR-8 27.4 µM | K562 47.6 µM | OVCAR-5 38 µM

O=[N+]([O-])c1cc(-[n+]2cc([O-])on2)ccc1F
inactive: BT-549 16.1 µM | NCI/ADR-RES 21.2 µM | DU-145 12.8 µM | MCF7 12.8 µM | ACHN 17 µM | SN12C 16.7 µM | HOP-62 15.8 µM | HCT-116 15.3 µM | EKVX 18 µM | PC-3 18.4 µM | SR 6.24 µM | OVCAR-4 11.9 µM | RXF 393 14.1 µM | SW-620 18.4 µM | MDA-N 16.1 µM | OVCAR-8 16.4 µM | K562 34.4 µM | OVCAR-5 16.5 µM

O=C(OCC1OC(c2nn[nH]n2)C(OC(=O)c2ccccc2)C1OC(=O)c1ccccc1)c1ccccc1 (configuration not stated)
inactive: BT-549 > 100 µM | NCI/ADR-RES > 100 µM | SF-539 > 100 µM | DU-145 > 100 µM | MCF7 41.2 µM | ACHN > 100 µM | SN12C > 100 µM | HOP-62 > 100 µM | HCT-116 > 100 µM | EKVX 66.1 µM | PC-3 > 100 µM | A498 > 100 µM | OVCAR-4 > 100 µM | RXF 393 41.9 µM | SW-620 > 100 µM | MDA-N > 100 µM | OVCAR-8 > 100 µM | K562 46.2 µM | OVCAR-5 > 100 µM

CCCN(CCCc1ccccc1)CCc1ccc2[nH]c(=S)[nH]c2c1
inactive: BT-549 68.9 µM | NCI/ADR-RES 20.5 µM | DU-145 44.3 µM | MCF7 28.2 µM | ACHN 29.2 µM | SN12C > 100 µM | HOP-62 26.5 µM | HCT-116 13.1 µM | EKVX 58.9 µM | PC-3 41.6 µM | SR 2.89 µM | A498 > 100 µM | OVCAR-4 76.4 µM | RXF 393 11.2 µM | SW-620 27 µM | MDA-N 19.2 µM | OVCAR-8 28.8 µM | K562 2.02 µM | OVCAR-5 48.5 µM

O=C1Nc2ccccc2/C1=C\c1c(-c2ccccc2)nc2n1CCS2
inactive: BT-549 20 µM | NCI/ADR-RES 23.1 µM | SF-539 18.7 µM | DU-145 13.6 µM | MCF7 12.5 µM | ACHN 23.6 µM | SN12C 22.1 µM | HOP-62 29.2 µM | HCT-116 20.8 µM | EKVX 17.7 µM | PC-3 19.1 µM | A498 18.2 µM | OVCAR-4 29 µM | RXF 393 16.7 µM | SW-620 29.3 µM | MDA-N 13.1 µM | OVCAR-8 31.3 µM | K562 19.5 µM | OVCAR-5 17.5 µM

O=C1CCC2(O)C3Cc4ccc(Oc5nnnn5-c5ccccc5)c5c4C2(CCN3CC2CC2)C1O5 (configuration not stated)
inactive: BT-549 96.2 µM | NCI/ADR-RES 86.7 µM | DU-145 > 100 µM | MCF7 54 µM | ACHN > 100 µM | SN12C > 100 µM | HOP-62 > 100 µM | HCT-116 43.6 µM | EKVX > 100 µM | PC-3 67 µM | SR 15.6 µM | A498 29.8 µM | OVCAR-4 79.6 µM | RXF 393 39.1 µM | SW-620 33.7 µM | MDA-N 22 µM | OVCAR-8 63.4 µM | K562 22.2 µM | OVCAR-5 > 100 µM

CCCCc1nc(C)oc1C(C)C
inactive: BT-549 > 100 µM | NCI/ADR-RES > 100 µM | SF-539 > 100 µM | DU-145 > 100 µM | MCF7 > 100 µM | ACHN > 100 µM | SN12C > 100 µM | HOP-62 > 100 µM | HCT-116 > 100 µM | EKVX > 100 µM | PC-3 > 100 µM | A498 > 100 µM | OVCAR-4 > 100 µM | RXF 393 > 100 µM | SW-620 > 100 µM | MDA-N > 100 µM | OVCAR-8 > 100 µM | K562 > 100 µM | OVCAR-5 > 100 µM

Cc1ccc2cccc3c2c1CC1(C3=O)S(=O)(=O)OCCOS1(=O)=O
inactive: BT-549 > 100 µM | NCI/ADR-RES > 100 µM | SF-539 > 100 µM | DU-145 > 100 µM | MCF7 > 100 µM | ACHN > 100 µM | SN12C > 100 µM | HOP-62 > 100 µM | HCT-116 > 100 µM | EKVX > 100 µM | PC-3 > 100 µM | A498 > 100 µM | OVCAR-4 > 100 µM | RXF 393 > 100 µM | SW-620 > 100 µM | MDA-N > 100 µM | OVCAR-8 > 100 µM | K562 > 100 µM | OVCAR-5 > 100 µM

NC1CC(=O)c2csc(Cl)c21 (configuration not stated)
inactive: BT-549 17.7 µM | NCI/ADR-RES 27 µM | SF-539 2.23 µM | DU-145 8.11 µM | MCF7 17.5 µM | ACHN 5.33 µM | SN12C 5.42 µM | HOP-62 14.1 µM | HCT-116 3.86 µM | EKVX 17.3 µM | PC-3 10.1 µM | A498 17.1 µM | OVCAR-4 25.9 µM | RXF 393 5.78 µM | SW-620 2.05 µM | MDA-N 8.63 µM | OVCAR-8 6.61 µM | K562 2.74 µM | OVCAR-5 19.6 µM

Cc1cn(Cc2cccc(C3=NCCCN3)c2)c(=O)n(Cc2cccc(C3=NCCCN3)c2)c1=O
inactive: BT-549 > 100 µM | NCI/ADR-RES > 100 µM | DU-145 > 100 µM | MCF7 > 100 µM | ACHN > 100 µM | SN12C 25.4 µM | HOP-62 > 100 µM | HCT-116 > 100 µM | EKVX > 100 µM | PC-3 > 100 µM | SR > 100 µM | A498 > 100 µM | OVCAR-4 > 100 µM | SW-620 > 100 µM | MDA-N > 100 µM | OVCAR-8 > 100 µM | K562 > 100 µM | OVCAR-5 > 100 µM

CCOP(=O)(/C=C\n1ccc(=O)[nH]c1=O)OCC
inactive: BT-549 > 100 µM | NCI/ADR-RES > 100 µM | SF-539 > 100 µM | DU-145 > 100 µM | MCF7 > 100 µM | ACHN > 100 µM | SN12C > 100 µM | HOP-62 > 100 µM | HCT-116 > 100 µM | EKVX > 100 µM | PC-3 > 100 µM | A498 > 100 µM | OVCAR-4 > 100 µM | RXF 393 > 100 µM | SW-620 > 100 µM | MDA-N > 100 µM | OVCAR-8 > 100 µM | K562 > 100 µM | OVCAR-5 > 100 µM
